Data published in patent publication US8895599B2, “Lipoprotein lipase-activating compositions comprising benzene derivates” (Otsuka Pharmaceutical Factory, Inc., priority 2008, dated 2014).

What was measured:
[1] = Therapeutical effect on olive oil-induced triglyceride hyperlipidemia models; assay type: in vivo; conditions: once a day for one week, SD rats, 2 h after olive oil
Method: Test of Therapeutical Effect on Olive Oil-Induced Triglyceride Hyperlipidemia Models
To conduct this test, 6-week-old SD rats (purchased from Charles River Japan) were used.
According to the body weight of the test rats when they were 5 weeks old, the test rats were divided into test groups and a control group with 6 rats per group.
A predetermined amount of each compound prepared in the Examples was measured and placed in an agate mortar. While 5% aqueous gum arabic solution was gradually introduced to the mortar, the compound was uniformly ground and suspended. Test samples were prepared by further adding 5% aqueous gum arabic solution gradually. Subsequently, these test samples were subjected to ultrasonic washing for 10 minutes to homogenize. Test samples were prepared as and when necessary.
The rats of the test groups were orally administered with the compounds of the invention such that rats received the compounds in an amount of 10, 30, or 100 mg/kg. The compounds of the invention were formulated as 5% gum arabic suspensions as described above.
The rats of the control group were orally administered with 5% aqueous gum arabic solution (not containing the compounds of the invention) in an amount of 5 ml/kg body weight. Administration was conducted once a day continuously for one week at a specific time of day after the rats reached 6 weeks of age. This test was performed under non-fasting conditions (rats had free access to feed and water), and the rats were fasted after the final administration of the compounds or 5% aqueous gum arabic solution.
Two hours after the final administration, olive oil was orally administered to the rats from both groups in an amount of 3 ml/kg body weight.
Two hours after the olive oil administration, blood was collected from the abdominal aorta of the rats of the respective groups using a heparinized syringe. The plasma was centrifugally separated from the blood at a temperature of 4° C., and the triglyceride level of the plasma was measured. A Hitachi 7170 automatic analyzer was used as the measuring instrument. Using the values measured from the test groups and control group, the decrease (%) in plasma triglyceride level was calculated according to the following equation: Decrease (%) in plasma triglyceride concentration=(1−E/C)×100 wherein E represents the average plasma triglyceride level in each test group; and C represents the average plasma triglyceride level in the control group.

[2] = Anti-obesity test using Zucker fatty rats; assay type: in vivo; conditions: 100 mg/kg oral, once a day over 4 weeks, relative to control group
Description: Anti-Obesity Test Using Zucker Fatty Rats
Zucker fatty rats are obese rats discovered by Zucker et al., in 1961 as mutants among 13 M rats, which are a hybrid between 13C and M rats. These rats (fa/fa) start to appear distinctly obese from normal broods around the age of 3 weeks. As they age, the weight difference between the fatty rats and normal rats increases. Zucker fatty rats are currently kept by a variety of organizations as simple obesity models, and are readily obtainable.
This test was performed using this rat model to evaluate the anti-obesity action of the compounds of the invention. The preparation method of test samples and the test procedures are described below:
The test samples were prepared in the same manner as in Test Example 2.
Zucker fatty rats and lean rats (both from Charles River Japan) were purchased at the age of 5 weeks. They were divided into groups (10 rats per group) according to body weight when they reached 6 weeks old. After acclimatization, the administration of test samples was initiated when the rats reached 8 weeks old. Test samples were orally administered using an oral gavage so that the compounds of the invention contained in the test samples were given in an amount of 100 mg/kg body weight (test sample dosage: 5 ml/kg body weight). The test samples were administered once a day over 4 weeks at a specific time of day.
As a control, a group of rats were administered with the same amount of 5% aqueous gum arabic solution (5 ml/kg body weight) instead of the test samples.
The rats of all groups were weighed on the last day of administration. The average body weight of the rats of each test group was compared with the average body weight (standard weight) of the rats of the control group to obtain the weight variations (differences). The weight differences were expressed as percentages in relation to the standard weight. The values thus calculated are referred to as “weight change %”. When a weight difference is negative relative to the standard weight, weight change % is shown with “−” (minus).
During the test period, the rats of the respective groups had free access to rat feed (“CRF-1”, manufactured by Oriental Yeast, Co., Ltd.) and water (tap water).

[3] = Anti-obesity test using AKR mice (high-fat feed); assay type: in vivo; conditions: 1 mg per gram of feed in high-fat feed, 7 weeks, AKR/J mice, relative to high-fat feed control group
Description: Anti-Obesity Test Using AKR Mice
Furthermore, this test enables the evaluation of therapeutic effects on diabetes. That is, it is reported that insulinemia can be observed in AKR/J mice when they are fed with a high-fat diet (see Am. J. Physiol. 266 (5 Pt 2), May 1994: R1423-8). It is thus known that insulinemia is strongly associated with diabetes (see, for example, J. Cardiovasc. Nurs. 16 (2), January 2002: 17-23). Therefore, this test can verify the therapeutic effects of the compounds of the present invention, used as test compounds, on diabetes.
For rat feed, powdered CRF-1 (Charles River Formula 1, manufactured by Oriental Yeast, Co., Ltd.) was used as normal feed. As high-fat feed, that prepared by blending CRF-1 with 18% safflower oil (Oriental Yeast, Co., Ltd.) was used.
Test substances were blended with the high-fat feed in an amount of 1 mg per gram of CRF-1.
AKR/J mice (from CLEA Japan, Inc.) were purchased at the age of 4 weeks. They were roughly divided into 2 groups according to body weight when the mice reached 5 weeks old. During this period, all mice were given the normal feed.
Subsequently, the mice of one group (8 mice) continued to be fed with the normal feed (normal feed group). The mice of the other group (8×(the number of the test substances+1) mice) were given the high-fat feed (high-fat feed group).
The body weight of the mice of each group was measured daily. […] These mice were further reared for 7 weeks (“test substances+high-fat feed groups”; n=8 per type of test substance). Specifically, the administration of the test substances was continued for 7 weeks. A group of mice to which high-fat feed containing no test substance was continued to be given was used as a control (high-fat feed control group; n=8).
Four hours after the feeding on the last day of the 7-week test (the last day of the test), the body weight of the mice of the “test substances+high fat feed groups” was measured. Blood was collected from the abdominal aorta of the mice using a heparinized syringe, and the leptin and insulin levels in the plasma were measured using an Elisa kit (produced by Morinaga). The mice of the other groups (normal feed group and high-fat feed control group) were reared till the last day of the test as above, and 4 hours after the last feeding on the last day of the test the measurements were performed according to the same procedures.
The average values of the test results (body weight, leptin level, and insulin level) of the test substances+high-fat feed groups to which the compounds prepared in Examples (Examples 10 and 58) were used as test substances (hereinbelow referred to as the “Example Compound 10-mixed high-fat feed group” and “Example Compound 58-mixed high-fat feed group”) were compared with the respective average values (standard values) of the results obtained from the mice of the high-fat control group to obtain the variations (differences). The differences were expressed as percentages in relation to the standard values. The values thus calculated were referred to as “weight change (%)”, “leptin level change (%)”, and “insulin level change (%)”. In the table below, the symbols “−” (minus) indicate that the differences are negative relative to the standard values.

melting point: 111 to 113 °C
SMILES: COc1cc(-c2cn3ccccc3n2)ccc1OCc1ccc(Br)cc1F [Example 58]
Decrease in plasma triglyceride level (%) ([1]; 10 mg/kg oral): 31%
Decrease in plasma triglyceride level (%) ([1]; 30 mg/kg oral): 66%
Decrease in plasma triglyceride level (%) ([1]; 100 mg/kg oral): 79%
Weight Change (%) [2]: −19%
Weight Change (%) [3]: −10%
Insulin level change (%) ([3]; plasma): −12%
Leptin level change (%) ([3]; plasma): −55%
